Test [1] relates to IgMWEA. As to the kind of experiment: Quantitative precipitin reaction of purified IgMWEA with polysaccharides. To be noted: ~8 μg N purified IgMWEA, total volume 350 μl, Fig. 1A. The class given is binding, human.
Another test relates to IgMMAY. Description: Quantitative precipitin inhibition, IgMMAY + Klebsiella K21. It is filed as binding, human. To be noted: for inhibition of precipitation of IgMMAY by Klebsiella K21: 25 μl 1:5 dilution IgMMAY + 1.6 μg Klebsiella K21, Fig. 3B; for times more active than pyruvate in inhibiting the Klebsiella K21 precipitin reaction: IgMMAY.
Test [2] relates to IgMWEA. As to the kind of experiment: Precipitin inhibition, IgMWEA-Helix pomatia galactan. The class given is binding, human. As to conditions: data not shown.
In test [3] the test system is IgMWEA. As to the kind of experiment: Quantitative precipitin inhibition, IgMWEA + Bacto agar 20C extract. It is filed as binding, human. As to conditions: for times more active than sodium pyruvate on a molar basis: inhibiting precipitation of IgMWEA by agar; for inhibition of precipitation of IgMWEA by agar: even at 100 μmol inhibitor.
The next test concerns anti-Klebsiella K11. To be noted: cited from earlier work.

As to heparin, in the test on IgMWEA [1], the “precipitin reaction with IgMWEA” value is “failed to precipitate”.

In the case of `O=C[C@H](O)[C@@H](O)[C@@H](O)[C@H](O)COP(=O)(O)O` [D-galactose-6-phosphate], the “inhibition of precipitation of IgMMAY by Klebsiella K21” value (shortened to “inhibition of precipitation of IgMMAY”) in the test on IgMMAY was “no inhibition”.

`CC(=O)C(=O)O` [sodium pyruvate, Sodium pyruvate]: the “inhibition of precipitin reaction of IgMWEA-Helix pomatia galactan” value (“inhibition … of IgMWEA-Helix pomatia galactan” below) in the test with IgMWEA [2] is given as “inhibited”. The “inhibition of precipitation of IgMMAY” value in the test on IgMMAY was “better than lactate and propionate”.

Turning to `CO[C@H]1O[C@@H]2CO[C@@](C)(C(=O)O)O[C@@H]2[C@H](O)[C@H]1O` (single isomer, unassigned) [methyl 4,6pyDGalα R isomer], in the test with IgMWEA [3], the “times more active than sodium pyruvate on a molar basis” value was > 20 times. The “times more active than pyruvate in inhibiting the Klebsiella K21 precipitin reaction” value in the test with IgMMAY is on record as 150 times.

Larch arabinogalactan: the “precipitin reaction with IgMWEA” value with IgMWEA [1] is “inactive”.

Turning to keratosulfate, the “precipitin reaction with IgMWEA” value in the test with IgMWEA [1] was “failed to precipitate”.

`O=P(O)(O)O[C@H]1O[C@H](CO)[C@@H](O)[C@H](O)[C@H]1O` [D-glucose-1-phosphate, D-glucose-l-phosphate]: in the test with IgMMAY, the “inhibition of precipitation of IgMMAY” value is given as “no inhibition”.

Consider dextran sulfate, for which, in the test with IgMWEA [1], the “precipitin reaction with IgMWEA” value is on record as “did react”.

For the molecule `COC1OC(CO)C(O)C(O)C1O` (stereo not drawn) [methyl β-DGal, methyl /~-DGal], the “inhibition of precipitation of IgMWEA by agar” value (shortened to “inhibition … by agar”) in the test with IgMWEA [3] is recorded as “no inhibition”. In the test on IgMMAY, the “inhibition of precipitation of IgMMAY” value was “no inhibition”.

Consider `CO[C@H]1O[C@H](CO)[C@H](O)[C@H](O)[C@H]1O` [methyl α-DGal, methyl a-DGal], for which the “inhibition … by agar” value with IgMWEA [3] is recorded as “no inhibition”. Further, the “inhibition of precipitation of IgMMAY” value in the test with IgMMAY is “no inhibition”.

With agarose, the “precipitin reaction with IgMWEA” value in the test with IgMWEA [1] was “inactive”.

With `O=P(O)(O)O[C@H]1O[C@H](CO)[C@H](O)[C@H](O)[C@H]1O` [D-galactose-1-phosphate], the “inhibition of precipitation of IgMMAY” value with IgMMAY is reported as “no inhibition”.

As to `CC(O)C(=O)[O-].[Na+]` (stereo not shown) [sodium lactate], the “inhibition … of IgMWEA-Helix pomatia galactan” value in the test on IgMWEA [2] is “inactive”.

As for `CO[C@@H]1O[C@@H]2COC(C)(C(=O)O)O[C@@H]2[C@H](O)[C@H]1O` (single isomer, unassigned) [methyl 4,6pyDGalβ R isomer, methyl 4,6-O-(1-carboxyethylidene) ~-o-galactopyranoside], the “times more active than sodium pyruvate on a molar basis” value with IgMWEA [3] is listed as > 20 times. Further, in the test on IgMMAY, the “times more active than pyruvate in inhibiting the Klebsiella K21 precipitin reaction” value was found to be 150 times.

With `O=C[C@H](O)[C@@H](O)[C@@H](O)[C@H](O)CO` [DGal, D-galactose], the “inhibition … by agar” value in the test on IgMWEA [3] is on record as “no inhibition”. Besides, the “inhibition of precipitation of IgMMAY” value in the test on IgMMAY is “Neither DGal, its methyl a- and/~-glycosides, nor any of the other neutral sugars tested gave any inhibition”.

Turning to xanthan gum, the “precipitin reaction with IgMWEA” value in the test with IgMWEA [1] was “failed to precipitate”.

For `CO[C@H]1O[C@@H]2CO[C@@](C)(C(=O)O)O[C@@H]2[C@H](O)[C@H]1O` (single isomer, unassigned) [methyl 4,6pyDGalα S isomer], in the test on IgMMAY, the “inhibition of precipitation of IgMMAY” value is “inactive”. Also, in the test with anti-Klebsiella K11, the “inhibition of Klebsiella K11-anti-Klebsiella K11” value was “does not inhibit”.

Regarding `CCC(=O)[O-].[Na+]` [sodium propionate], in the test on IgMWEA [2], the “inhibition … of IgMWEA-Helix pomatia galactan” value was “inactive”.
